# Assay results published in publication PMC7456637, “Pharmacokinetic characterization of fluorocoxib D, a cyclooxygenase-2-targeted optical imaging agent for detection of cancer” (Journal of Biomedical Optics, 2020).
# “And” between values parts separate entries of the source, which are not always exact repeats. Identical values can stand only once.
# What was measured:
# [1] = Pilot safety study: complete urinalysis; type: in vivo, dog
# Procedure: The animal studies were performed in the accordance with the University of Tennessee Institutional Animal Care and Use Committee (UT IACUC)-approved protocols and in an accordance with NIH guidelines. Individually housed research healthy female beagle dogs (Covance Research Product) with weights of 6.7 to 10.3 kg were used to assess the safety and pharmacokinetic parameters of fluorocoxib D administrated a dose of 1 mg/kg over 20 min intravenously (i.v.).
# For single dose safety evaluation studies, we administrated fluorocoxib D at 1 mg/kg , i.v. using a preplaced cephalic or saphenous vein catheter over 20 min to six healthy research dogs following protocol as described previously.[38] Briefly, physical examinations for signs of potential drug toxicity were performed before, during, and daily for 3 days after fluorocoxib D administration. Physical assessment included auscultation of heart and lungs, abdominal palpation, body temperature, appetite, attitude, activity levels monitoring, and other health-related events. Hypersensitivity was evaluated by direct observation of each dog during treatment for clinical signs of an allergic reaction (facial swelling, flushing, urticaria, dyspnea, scratching, and changes of heart rates). […] Laboratory evaluations of blood and urine were carried out before and 3 days after fluorocoxib D administration to monitor signs of toxicity. Blood (up to 3 ml) was collected into ethylenediaminetetraacetic acid (EDTA) and heparin-treated tubes, and urine (up to 5 ml) was collected by cystocentesis or from the floor of the runs. The laboratory evaluation consisted of a complete blood count (CBC), serum chemistry profile, and complete urinalysis. The CBC evaluated total white blood cells (WBC) and hematocrit (HCT), in addition to absolute numbers of neutrophils, lymphocytes, monocytes, eosinophils, and platelets. The plasma chemistry profile evaluated blood urea nitrogen (BUN), creatinine, proteins (albumin, globulins, and total proteins), alanine aminotransferase (ALT), total bilirubin, glucose, and electrolytes. The complete urinalysis evaluated urine proteins, glucose, and ketones; a sediment examination and urine-specific gravity were validated as well for any possible signs of renal toxicity of fluorocoxib D. All laboratory tests were carried out at the Veterinary Medical Center of the University of Tennessee in Knoxville.
# COX2 = settings: cited from earlier work
# [2] = system: COX-2-expressing head and neck cancer (HNC); experiment: Fluorocoxib D uptake in HNC mass during rhinoscopy in a client-owned dog; type: in vivo; settings: for Uptake of fluorocoxib D in HNC during rhinoscopy: 1 mg/kg i.v. over 20 min, half hour uptake, client-owned dog, chondrosarcoma
# Procedure: The owners signed a consent form for enrolling their dog for our proof-of principal study. A nine-year old female-spayed Golden Retriever dog weighing 35 kg was presented for an acute onset of unilateral right-sided epistaxis of 5-day duration. Previous medical history included a grade 2 soft tissue sarcoma with a high mitotic index that was completely excised from her ventral neck ∼2 years prior with no signs of regrowth. Rhinoscopy and biopsy procedure in the dog was performed by board-certified veterinary internal specialists (SO and JS) in an accordance with a standard veterinary care and the UT IACUC-approved protocol. Fluorocoxib D was administrated i.v. 1 mg/kg over 20 min using a catheter, followed by a half hour uptake before initiation of rhinoscopy procedure. Rhinoscopy was used to obtain biopsy samples guided by uptaken fluorocoxib D in the computed tomography (CT)-identified head and neck cancer (HNC) mass. Rhinoscopy and biopsy procedures in dog were performed under general anesthesia using a 2.7-mm, 30-deg, 18-cm rigid scope (Karl Storz Veterinary Endoscopy) attached to a TRICAM PDD as described previously[38] using a custom-designed filter system for detection of fluorocoxib D ( λem 645±50 nm ). After complete recovery from the rhinoscopic examination and anesthesia in a quiet room, the client-owned dog was returned to its owners. The heat map images with adjusted hue saturation of fluorocoxib D signal (pink color) from normal tissue (upper three images) and HNC tumor (lower three images) obtained during rhinoscopy were generated using Adobe Photoshop CC2019 software ([…]) in order to better visualize the tumor and its margins. […]
# The biopsy samples obtained during rhinoscopy procedures in dogs were formalin-fixed and paraffin-embedded and sectioned at 7-μm thin sections for histology and immunohistochemistry analysis for detection of COX-2 and Ki67 expression as described previously.[38] […] The tissue specimens were evaluated using a Leitz DMRB microscope. […]
# [3] = 3 days after single dose 1 mg/kg i.v., individual dogs, reference NEG, 1 mg/kg
compound,measurement,setting,value
"COc1ccc2c(c1)c(CC(=O)NCCCCNC(=O)c1ccc(C3=c4cc5c6c(c4Oc4c3cc3c7c4CCCN7CCC3)CCC[N+]=6CCC5)cc1)c(C)n2C(=O)c1ccc(Cl)cc1 [Fluorocoxib D, N -[(rhodamin-X-yl)but-4-yl]-2-[1-(4-chlorobenzoyl)-5-methoxy-2-methyl-1H-indol-3-yl]acetamide]","SP. GRAV (urine-specific gravity), After","[1]; 3 days after single dose 1 mg/kg i.v., individual dogs, 1 mg/kg",1.03 and 1.039 (2×) and 1.032 and 1.044
same,"GLU-COSE (urine), After","[1]; 3 days after single dose 1 mg/kg i.v., individual dogs, reference NEG",NEG
same,"PRO-TEIN (urine), After","[1]; 3 days after single dose 1 mg/kg i.v., individual dogs, reference NEG-1+, 1 mg/kg",NEG (3×) and TRACE
same,"BLD/Hb (urine blood/hemoglobin), After",[1]; [3],NEG (2×) and TRACE (2×)
same,"KETO-NES (urine), After",[1]; [3],NEG (3×) and TRACE (2×)
same,"PH (urine pH), After","[1]; 3 days after single dose 1 mg/kg i.v., individual dogs, reference range 5 to 9, 1 mg/kg",>9 H and 6 (3×) and 5.5
same,Urine bacteria finding 3 days after administration,"[1]; two dogs (#4 and #6), no pyuria, not thought relevant to toxicity",bacteriuria
same,IC50,COX2,230 nM
same,Ratio (COX1/COX2),COX2; ratio of IC50 values,17.4
same,Uptake of fluorocoxib D in HNC during rhinoscopy,[2],uptake was detected
same,Uptake of fluorocoxib D in HNC during rhinoscopy,[2]; listed as fluorocoxib D,Specific uptake of fluorocoxib D was detected
same,Tumor-to-normal tissue ratio (T/N ratio) of fluorocoxib D signal,"[2]; 1 mg/kg i.v., canine HNC, ImageJ, normal n=804 and tumor ROI n=866",3.7±0.9
